Key:
Cell cytotoxicity CC50 = format: cell-based; conditions: human; mean of at least two experiments
[1] = Liver microsomal stability, rat; format: in vitro ADME; conditions: pH 7.4; rat liver microsomes, 0.5 mg/mL protein, 1 μM compound, NADPH; >80% remaining at 45 min denoted >140; read-out: Liver Microsomal Stability: t1/2 (min); rat
In short: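 Pooled liver microsomes (0.5 mg/mL protein) in 0.1 M phosphate pH 7.4 with 1 μM compound (0.25% DMSO), started with 1 mM NADPH at 37° C; sampled 0-45 min, minus-NADPH control 45 min. LC-MS/MS depletion slope gave t1/2 and CLint.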

[2] = Liver hepatocyte stability, rat; format: in vitro ADME; conditions: rat hepatocytes, 3 μM compound, 60 min, >80% remaining at 60 min denoted >186, read-out: Liver Hepatocyte Stability: t1/2 (min)
Description: (§1) Cryopreserved pooled hepatocytes were purchased from a reputable commercial supplier and stored in liquid nitrogen prior to use. Williams E media supplemented with 2 mM L-glutamine and 25 mM HEPES and test compound (final substrate concentration 3 μM; final DMSO concentration 0.25%) are pre-incubated at 37° C. prior to the addition of a suspension of cryopreserved hepatocytes (final cell density 0.5×10^6 viable cells/mL in Williams E media supplemented with 2 mM L-glutamine and 25 mM HEPES) to initiate the reaction. The final incubation volume is 500 μL. Two control compounds were included with each species, alongside appropriate vehicle control. The reactions are stopped by transferring 50 μL of incubate to 100 μL acetonitrile containing internal standard at the appropriate time points. Samples were removed at 6 time points (0, 5, 15, 30, 45 and 60 min) over the course of a 60 min experiment. The termination plates are centrifuged at 2500 rpm at 4° C. for 30 min to precipitate the protein. Following protein precipitation, the sample supernatants were combined in cassettes of up to 4 compounds and analysed using generic LC-MS/MS conditions. From a plot of ln peak area ratio (compound peak area/internal standard peak area) against time, the gradient of the line is determined. Subsequently, half-life (t1/2) and intrinsic clearance (CLint) were calculated.

[3] = Liver hepatocyte stability, human; format: in vitro ADME; conditions: human hepatocytes, 3 μM compound, 60 min, >80% remaining at 60 min denoted >186, read-out: Liver Hepatocyte Stability: t1/2 (min)
Description: as §1

[4] = Rat pharmacokinetics in vivo; conditions: male Sprague Dawley rats; for AUC(0-t): read-out: PO AUClast
Description: The pharmacokinetics of compounds were studied in vivo in rats at doses of 1 mg/kg (IV) and 10 mg/kg (PO).
Male rats (Sprague Dawley) surgically prepared with a jugular vein cannula were treated with experimental compounds via intravenous administration (IV; n=3; 1 mg/kg) or oral administration (PO; n=3; 10 mg/kg). Compounds were formulated as a solution in 40:60 dimethylacetamide:saline (IV administration), a suspension in 1% methyl cellulose (viscosity: 15 cP), 0.1% Tween80 in water (PO administration: Example 3), a solution in 10% DMSO/10% Cremaphor/80% water (PO administration: Examples 4, 11, 21, 23, 25, 26, 32) or a solution in 10% DMSO/20% Cremaphor/70% water (PO administration: Examples 19, 20, 22, 24, 30). […] Serial blood samples were collected via the cannula at 0.02, 0.08, 0.25, 0.5, 1, 2, 4, 6, 8 and 24 h post IV dosing of compound, and at 0.08, 0.25, 0.5, 1, 2, 4, 6, 8 and 24 h post oral dosing of compound, and plasma was prepared by centrifugation and stored immediately at −80° C. Samples were subsequently thawed, prepared for analysis by protein precipitation with acetonitrile, and analysed by tandem LCMS using electrospray ionisation using a matrix-matched calibration curve. PK parameters were calculated from the resulting data.

[5] = 8 h, doses 1 mg/kg (IV) and 10 mg/kg (PO)
[6] = rat, in vivo, IV 1 mg/kg, PO 10 mg/kg
[7] = rat, in vivo, IV 1 mg/kg, read-out: IV t½ (converted)
[8] = rat, in vivo, PO 10 mg/kg, read-out: PO t½ (converted)
[9] = rat, in vivo, doses 1 mg/kg (IV) and 10 mg/kg (PO)

Compound: O=C(N[C@H]1N=C(c2ccccc2)c2cccc(F)c2NC1=O)c1cnn(C2CCOCC2)c1-c1ccc(NC2CC2)nc1F [Example 21, 5-[6-(Cyclopropylamino)-2-fluoropyridin-3-yl]-N-[(3S)-9-fluoro-2-oxo-5-phenyl-1,3-dihydro-1,4-benzodiazepin-3-yl]-1-(oxan-4-yl)pyrazole-4-carboxamide]
- CC50 (Cell cytotoxicity CC50): > 25 µM
- half-life [1]: 87.6 min
- half-life [2]: 284 min
- half-life [3]: > 186 min
- C 8 h [4, 5]: 385 ng/mL
- Vd ([4]; rat, in vivo, IV 1 mg/kg): 2.1 L/kg
- clearance ([4]; rat, in vivo, IV 1 mg/kg): 18.6 mL/min/kg
- bioavailability [4, 6]: 98.2%
- half-life [4, 7]: 1.7 h
- AUC(0-t) ([4]; rat, in vivo, PO 10 mg/kg): 8180 ng·h/mL
- half-life [4, 8]: 3.2 h
- Cmax [4, 9]: 1590 ng/mL

Compound: CC(C)Nc1ccc(-c2c(C(=O)N[C@H]3N=C(c4ccccc4)c4cccc(F)c4NC3=O)cnn2C2CCOCC2)c(F)n1 [Example 22, N-[(3S)-9-fluoro-2-oxo-5-phenyl-1,3-dihydro-1,4-benzodiazepin-3-yl]-5-[2-fluoro-6-(propan-2-ylamino)pyridin-3-yl]-1-(oxan-4-yl)pyrazole-4-carboxamide]
- CC50 (Cell cytotoxicity CC50): > 25 µM
- half-life [1]: > 140 min
- half-life [2]: 120 min
- half-life [3]: 207 min
- C 8 h [4, 5]: 734 ng/mL
- Vd ([4]; rat, in vivo, IV 1 mg/kg): 1.9 L/kg
- clearance ([4]; rat, in vivo, IV 1 mg/kg): 10 mL/min/kg
- bioavailability [4, 6]: 88.3%
- half-life [4, 7]: 2.4 h
- AUC(0-t) ([4]; rat, in vivo, PO 10 mg/kg): 14900 ng·h/mL
- half-life [4, 8]: 2.6 h
- Cmax [4, 9]: 1440 ng/mL

Compound: CCn1ncc(C(=O)N[C@H]2N=C(c3ccccc3)c3ccccc3NC2=O)c1-c1ccc(NC2CC2)nc1F [Example 4, 1-Ethyl-5-[2-fluoro-6-(cyclopropylamino)pyridin-3-yl]-N-[(3S)-2-oxo-5-phenyl-1,3-dihydro-1,4-benzodiazepin-3-yl]pyrazole-4-carboxamide]
- CC50 (Cell cytotoxicity CC50): > 25 µM
- half-life [1]: 68.5 min
- half-life [2]: 47.3 min
- half-life [3]: 53.5 min
- C 8 h [4, 5]: 470 ng/mL
- Vd ([4]; rat, in vivo, IV 1 mg/kg): 2 L/kg
- clearance ([4]; rat, in vivo, IV 1 mg/kg): 22.7 mL/min/kg
- bioavailability [4, 6]: 124%
- half-life [4, 7]: 1.3 h
- AUC(0-t) ([4]; rat, in vivo, PO 10 mg/kg): 9020 ng·h/mL
- half-life [4, 8]: 2.2 h
- Cmax [4, 9]: 1340 ng/mL

Compound: CCNc1ccc(-c2c(C(=O)N[C@H]3N=C(c4ccccc4)c4cccc(F)c4NC3=O)cnn2C2CCOCC2)c(F)n1 [Example 24, 5-[6-(Ethylamino)-2-fluoropyridin-3-yl]-N-[(3S)-9-fluoro-2-oxo-5-phenyl-1,3-dihydro-1,4-benzodiazepin-3-yl]-1-(oxan-4-yl)pyrazole-4-carboxamide]
- CC50 (Cell cytotoxicity CC50): > 25 µM
- half-life [1]: 484 min
- half-life [2]: 228 min
- half-life [3]: 162 min
- C 8 h [4, 5]: 182 ng/mL
- Vd ([4]; rat, in vivo, IV 1 mg/kg): 1.4 L/kg
- clearance ([4]; rat, in vivo, IV 1 mg/kg): 15 mL/min/kg
- bioavailability [4, 6]: 50%
- half-life [4, 7]: 1.3 h
- AUC(0-t) ([4]; rat, in vivo, PO 10 mg/kg): 5540 ng·h/mL
- half-life [4, 8]: 3.4 h
- Cmax [4, 9]: 791 ng/mL

Compound: CCn1ncc(C(=O)N[C@H]2N=C(c3ccccc3)c3ccccc3NC2=O)c1-c1ccc(NC(C)C)nc1F [Example 3, 1-Ethyl-5-[2-fluoro-6-(propan-2-ylamino)pyridin-3-yl]-N-[(3S)-2-oxo-5-phenyl-1,3-dihydro-1,4-benzodiazepin-3-yl]pyrazole-4-carboxamide]
- CC50 at 2 days (Cell cytotoxicity CC50): > 25 µM
- half-life at 1 µM [1]: 88.8 min
- half-life at 3 µM [2]: 73.8 min
- half-life at 3 µM [3]: 52.6 min
- concentration at 8 h ([4]; rat, in vivo, 8 h, doses 1 mg/kg (IV) and 10 mg/kg (PO), read-out: C 8 h): 108 ng/mL
- Vd ([4]; rat, in vivo, IV 1 mg/kg): 2.4 L/kg
- clearance ([4]; rat, in vivo, IV 1 mg/kg): 13.3 mL/min/kg
- bioavailability [4, 6]: 17.1%
- half-life [4, 7]: 2.2 h
- AUC(0-t) ([4]; rat, in vivo, PO 10 mg/kg): 2070 ng·h/mL
- half-life [4, 8]: 4.6 h
- Cmax [4, 9]: 199 ng/mL

Reference: patent publication US20220409629A1, “BENZODIAZEPINE DERIVATIVES FOR TREATING A RESPIRATORY SYNCYTIAL VIRUS (RSV) INFECTION” (priority 2019, published 2022)
